How the values were obtained:
CRBN/DDB1 = CRBN/DDB1 (Homo sapiens, UniProt Q96SW2); experiment: HTRF binding assay (displacement of Cy5-thalidomide probe from CRBN/DDB1); settings: CRBN/DDB1 2.5 nM, Cy5-Thalidomide 100 nM, 30 min; geometric mean; read-out: HTRF_Thali_Disp_DR_geo_IC50
Description: Binding of test compounds to CRBN/DDB1 was monitored in an HTRF assay using 1-[5-({2-[2-(2-{[2-(2,6-dioxopiperidin-3-yl)-1,3-dioxo-2,3-dihydro-1H-isoindol-4-yl]oxy}acetamido)ethoxy]ethyl}carbamoyl)pentyl]-3,3-dimethyl-2-[(1E,3E)-5-[(2E)-1,3,3-trimethyl-5-sulfo-2,3-dihydro-1H-indol-2-ylidene]penta-1,3-dien-1-yl]-3H-indol-1-ium-5-sulfonate as a fluorescent probe. In this assay, compounds displace the fluorescently labeled thalidomide-based probe bound to CRBN and fluorescence is monitored with increasing compound concentration. Assays were conducted in Greiner white 384 well HiBase plates (Cat. No 784075-25) in 10 μL total volume. A one pot detection solution of CRBN/DDB1 (2.5 nM), anti-His Terbium Cryptate Gold (1×, PerkinElmer Cat. #: 61HI2TLB), and Cy5-Thalidomide (100 nM, Tenova Cat.: T52461) was prepared in 20 mM HEPES, 20 mM NaCl, 0.2 mM TCEP, 0.2 mM EDTA, and 0.005% Tween20 was dispensed to each assay plate. Test compounds were stored in dry, ambient temperatures at 10 mM. A 10-point, 1:3 dilution series was prepared from 10 mM stock concentrations in Echo-compatible LDV plates. 10 nL of each compound dilution series was dispensed into assays wells using an Echo 650 (Labcyte inc. USA). 10 nL of 10 mM lenalidomide (Selleckchem Cat no. S1029) was transferred into the active-control wells for the assay and 10 nL of DMSO was transferred into the negative control wells. The assay was then allowed to incubate for 30 min at ambient temperature after transferring the test compounds. Plate measurements were taken on a Pherastar FSX (BMG Labtech, Germany) using the HTRF Red filter (Ex. 337 nm, em1: 620 nm, em2: 665 nm) (Flashes: 50, Integration time: 60-400 μs, Z-height: 10 mm, Ratio-multiplier: 10,000). Analysis, HTRF ratio and IC50 values were derived using KNIME analytics (KNIME Zurich) transformation and fitting within Collaborative Drug Discovery (Collaborative Drug Discovery USA) using a 4-parameter logistic fit. HTRF ratio calculation was performed using the following formula: […]
where em665 nm represents the measured emission at 665 nm upon excitation at 337 nm and em620 nm the measured emission at 620 nm upon excitation at 337 nm. The 4 parameter logistic fitting model was performed using the following formula: […]
where Y represents the HTRF ratio response (as defined previously), X the compound concentration in μM, Ymin the minimum response plateau, Ymax the maximum response plateau, IC50 the concentration of […] that gives a response half way between Ymin and Ymax and HillSlope the steepness of the family of curves. No fitting model constraints was applied on Ymin, or Ymax whilst IC50>0 and −0.5>HillSlope>−3 Cheng-Prusoff transformation
Ki values were derived from the geometric mean of the IC50 values using the Cheng-Prusoff transformation:
where [L] represents the concentration of fluorescent probe in […], Kd the affinity (binding constant) of the fluorescent probe in units of μM and IC50 the concentration of agonist that gives a response halfway between Ymin and Ymax (as described in 1.2.1)
Analysis and IC50 values were derived using KNIME analytics (KNIME, Zurich) transformation and fitting within Collaborative Drug Discovery (Collaborative Drug Discovery, USA) as described in 1.2.1. Ki values were derived from the geometric mean of the IC50 values using the Cheng-Prusoff transformation as described in 2.2.2. Data was visualized in GraphPad Prism 8.1.2 (GraphPad, USA) and reported as mean and standard deviation. Microsoft Office Excel 2012 (Redmond, WA) was used for calculation of mean and standard deviation.
IC50 data are reported in Table 3 for compounds in Table 1. In Table 3 below, According to the code, A represents a IC50 value of ≤0.1 μM, B represents a IC50 value >0.1 μM and ≤1 μM, C represents an IC50 value >1 μM.

CK1α = molecular target: T1, CK1α (Homo sapiens, UniProt P48729+Q96SW2); experiment: CK1α NanoBit Assay (HiBiT-tagged CSNK1A1 in HEK293 cells, luminescence); assay type: cell-based; settings: 24 h
T1 construct: HEK293 clonal lines with CRISPR KI HiBiT tag on CSNK1A1; host or cells: HEK293 clonal line, CRISPR knock-in HiBiT at the CSNK1A1 locus, stably expressing LgBiT
T1 sequence (P48729 whole entry): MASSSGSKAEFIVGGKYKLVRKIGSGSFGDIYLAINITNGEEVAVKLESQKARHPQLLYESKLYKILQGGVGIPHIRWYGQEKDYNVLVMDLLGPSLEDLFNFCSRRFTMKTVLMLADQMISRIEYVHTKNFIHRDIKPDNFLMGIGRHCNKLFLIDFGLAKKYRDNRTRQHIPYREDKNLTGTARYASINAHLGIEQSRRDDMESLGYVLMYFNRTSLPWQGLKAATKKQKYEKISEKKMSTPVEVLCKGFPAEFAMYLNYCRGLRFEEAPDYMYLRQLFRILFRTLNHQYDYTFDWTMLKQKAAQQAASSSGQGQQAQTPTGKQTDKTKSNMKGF
T1 sequence (Q96SW2 whole entry): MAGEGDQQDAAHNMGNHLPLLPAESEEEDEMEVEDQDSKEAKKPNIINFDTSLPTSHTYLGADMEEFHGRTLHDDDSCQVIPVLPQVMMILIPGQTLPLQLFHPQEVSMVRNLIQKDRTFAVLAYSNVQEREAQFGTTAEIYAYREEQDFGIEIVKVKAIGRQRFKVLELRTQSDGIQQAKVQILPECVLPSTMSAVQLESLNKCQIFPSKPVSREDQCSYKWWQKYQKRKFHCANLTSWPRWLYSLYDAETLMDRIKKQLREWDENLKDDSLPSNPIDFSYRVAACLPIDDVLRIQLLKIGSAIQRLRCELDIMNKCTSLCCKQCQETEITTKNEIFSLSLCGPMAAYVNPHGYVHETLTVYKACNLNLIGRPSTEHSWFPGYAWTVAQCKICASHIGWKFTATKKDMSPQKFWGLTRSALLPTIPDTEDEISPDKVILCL
T1 sequence (Q16531 whole entry partner): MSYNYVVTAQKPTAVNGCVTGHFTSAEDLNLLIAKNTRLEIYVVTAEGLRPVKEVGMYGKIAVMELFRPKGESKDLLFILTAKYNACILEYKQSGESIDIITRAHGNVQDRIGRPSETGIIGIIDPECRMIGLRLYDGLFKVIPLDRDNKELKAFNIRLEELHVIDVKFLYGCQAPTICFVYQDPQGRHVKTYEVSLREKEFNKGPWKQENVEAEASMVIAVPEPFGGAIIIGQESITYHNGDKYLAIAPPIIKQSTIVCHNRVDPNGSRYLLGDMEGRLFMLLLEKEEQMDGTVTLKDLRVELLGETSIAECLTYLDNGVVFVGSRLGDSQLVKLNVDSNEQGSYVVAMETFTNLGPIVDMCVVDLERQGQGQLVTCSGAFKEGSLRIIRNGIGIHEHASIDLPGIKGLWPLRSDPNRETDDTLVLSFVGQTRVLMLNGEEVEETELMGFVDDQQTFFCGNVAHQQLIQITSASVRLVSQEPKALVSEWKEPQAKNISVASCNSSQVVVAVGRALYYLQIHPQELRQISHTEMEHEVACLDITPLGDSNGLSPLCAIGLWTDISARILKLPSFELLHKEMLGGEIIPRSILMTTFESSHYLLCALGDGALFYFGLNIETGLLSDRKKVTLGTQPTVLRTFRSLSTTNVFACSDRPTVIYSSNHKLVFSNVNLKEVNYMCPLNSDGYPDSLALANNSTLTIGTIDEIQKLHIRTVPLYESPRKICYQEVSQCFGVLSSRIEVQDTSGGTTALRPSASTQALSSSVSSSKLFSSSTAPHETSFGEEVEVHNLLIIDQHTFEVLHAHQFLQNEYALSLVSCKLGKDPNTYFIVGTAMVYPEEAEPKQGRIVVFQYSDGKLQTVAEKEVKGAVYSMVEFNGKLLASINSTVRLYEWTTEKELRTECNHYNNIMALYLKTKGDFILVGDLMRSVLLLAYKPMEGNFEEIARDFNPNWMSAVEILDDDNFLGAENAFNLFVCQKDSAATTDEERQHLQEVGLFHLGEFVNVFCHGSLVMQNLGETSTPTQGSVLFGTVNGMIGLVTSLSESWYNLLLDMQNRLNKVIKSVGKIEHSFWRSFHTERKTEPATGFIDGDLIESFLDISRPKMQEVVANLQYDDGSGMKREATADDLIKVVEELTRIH
Procedure: HEK293 clonal lines with CRISPR KI HiBiT tag on CSNK1A1 and stably expressing LgBiT protein were obtained from Promega (Madison, WI). Cells were plated at 5000 cells per well using Multiflo (BioTek) in 384-well white solid bottom plates (Corning, 3570BC) in 25 μl volume in DMEM media (DMEM, high glucose, HEPES, no phenol red (ThermoFisher Scientific, 21063029)) containing 10% FBS (Corning, 35-075-CV), 1% Penicillin/Streptomycin ((ThermoFisher Scientific, 15140-122), and 0.2% Endurazine (Nano-Glo Endurazine Live Cell Substrate (Promega, N2571)). Cells were incubated for 16 hours at 37° C., 5% CO2. Depending on experiment 25 or 75 nL of a compound at 10 mM were added into the plate using an Echo® 650 liquid handler (Labcyte) to achieve final concentration of 10 or 30 μM in wells. Cells were incubated at 37° C., 5% CO2 for 24 hours and then signal was read on a Pherastar FSX using “LUM plus” optic module.
Data analysis was performed in Scinamic (Scinamic, Cambridge, MA). Luminescence response (R) was calculated by the formula: response=100*(S−N)/(P−N) where S is the signal of the well, N and P the mean negative and positive control values respectively of the same plate. The luminescence response was then fitted in Scinamic using a 3-parameter agonist logistic fit (hillslope=1, EC50>0, top/bottom unconstrained).
DC50 data are reported in Table 2 for compounds in Table 1. In Table 2 below, According to the code, A represents a DC50 value of ≤0.1 μM, B represents a DC50 value >0.1 μM and ≤1 μM, C represents an DC50 value >1 μM.

CRBN/DDB1, sequence (Q96SW2 whole entry): as the sequence (Q96SW2 whole entry) above
CRBN/DDB1, sequence (Q16531 whole entry partner): as the sequence (Q16531 whole entry partner) above

IC50 (CRBN/DDB1) [nM] | DC50 (CK1α) [µM] | SMILES
100 to 1000 | ≤ 0.1 | O=C1CCC(N2Cc3cc(N4CCN(c5ccc(C(F)(F)F)cc5)C4=O)ccc3C2=O)C(=O)N1 (stereo not shown) [Compound 112, 3-(1-oxo-5-(2-oxo-3-(4-(trifluoromethyl)phenyl)imidazolidin-1-yl)isoindolin-2-yl)piperidine-2,6-dione]
100 to 1000 | 0.1 to 1 | O=C1CCC(N2Cc3cc(N4CCN(C5CC5)C4=O)ccc3C2=O)C(=O)N1 (stereo not shown) [Compound 164, 3-[5-(3-cyclopropyl-2-oxo-imidazolidin-1-yl)-1-oxo-isoindolin-2-yl]piperidine-2,6-dione]
100 to 1000 | 0.1 to 1 | Cc1ccc(N2C(=O)N(c3ccc4c(c3)CN(C3CCC(=O)NC3=O)C4=O)C[C@H]2C)nc1 (stereo partly drawn) [Compound 156, 3-(5-((R)-4-methyl-3-(5-methylpyridin-2-yl)-2-oxoimidazolidin-1-yl)-1-oxoisoindolin-2-yl)piperidine-2,6-dione]
100 to 1000 | ≤ 0.1 | Cc1cccc(N2CCN(c3ccc4c(c3)CN(C3CCC(=O)NC3=O)C4=O)C2=O)c1 (stereo not shown) [Compound 110, 3-(1-oxo-5-(2-oxo-3-(m-tolyl)imidazolidin-1-yl)isoindolin-2-yl)piperidine-2,6-dione]
≤ 100 | > 1 | CN1CC(c2ccc(N3CCN(c4ccc5c(c4)CN(C4CCC(=O)NC4=O)C5=O)C3=O)cc2)C1 (stereo not shown) [Compound 176, 3-(5-(3-(4-(1-methylazetidin-3-yl)phenyl)-2-oxoimidazolidin-1-yl)-1-oxoisoindolin-2-yl)piperidine-2,6-dione]
100 to 1000 | ≤ 0.1 | COCc1ccc(N2C(=O)N(c3ccc4c(c3)CN(C3CCC(=O)NC3=O)C4=O)C[C@H]2C)cc1 (stereo partly drawn) [Compound 134, 3-(5-((R)-3-(4-(methoxymethyl)phenyl)-4-methyl-2-oxoimidazolidin-1-yl)-1-oxoisoindolin-2-yl)piperidine-2,6-dione]
100 to 1000 | ≤ 0.1 | O=C1CCC(N2Cc3cc(N4CCN(c5ccc(Cl)cc5)C4=O)ccc3C2=O)C(=O)N1 (stereo not shown) [Compound 114]
100 to 1000 | ≤ 0.1 | C[C@@H]1CN(c2ccc3c(c2)CN(C2CCC(=O)NC2=O)C3=O)C(=O)N1C1CCCC1 (stereo partly drawn) [Compound 138, 3-(5-((R)-3-cyclopentyl-4-methyl-2-oxoimidazolidin-1-yl)-1-oxoisoindolin-2-yl)piperidine-2,6-dione]
100 to 1000 | ≤ 0.1 | COC[C@@H]1CN(c2ccc3c(c2)CN(C2CCC(=O)NC2=O)C3=O)C(=O)N1c1ccc(C)cc1 (stereo partly drawn) [Compound 143, 3-(5-((S)-4-(methoxymethyl)-2-oxo-3-(p-tolyl)imidazolidin-1-yl)-1-oxoisoindolin-2-yl)piperidine-2,6-dione]
100 to 1000 | 0.1 to 1 | O=C1CCC(N2Cc3cc(N4CCN(C5CC6(CCC6)C5)C4=O)ccc3C2=O)C(=O)N1 (stereo not shown) [Compound 153, 3-(1-oxo-5-(2-oxo-3-(spiro[3.3]heptan-2-yl)imidazolidin-1-yl)isoindolin-2-yl)piperidine-2,6-dione]
100 to 1000 | ≤ 0.1 | C[C@@H]1CN(c2ccc3c(c2)CN(C2CCC(=O)NC2=O)C3=O)C(=O)N1C1CCC1 (stereo partly drawn) [Compound 142, 3-(5-((R)-3-cyclobutyl-4-methyl-2-oxoimidazolidin-1-yl)-1-oxoisoindolin-2-yl)piperidine-2,6-dione]
100 to 1000 | ≤ 0.1 | CO[C@@H](C)c1cccc(N2CCN(c3ccc4c(c3)CN(C3CCC(=O)NC3=O)C4=O)C2=O)c1 (stereo partly drawn) [Compound 139, 3-(5-(3-(3-((S)-1-methoxyethyl)phenyl)-2-oxoimidazolidin-1-yl)-1-oxoisoindolin-2-yl)piperidine-2,6-dione]
100 to 1000 | ≤ 0.1 | O=C1CCC(N2Cc3cc(N4CC5(CC5)N(c5ccccc5)C4=O)ccc3C2=O)C(=O)N1 (stereo not shown) [Compound 152, 3-(1-oxo-5-(5-oxo-4-phenyl-4,6-diazaspiro[2.4]heptan-6-yl)isoindolin-2-yl)piperidine-2,6-dione]
100 to 1000 | ≤ 0.1 | C[C@H]1CN(c2ccc3c(c2)CN(C2CCC(=O)NC2=O)C3=O)C(=O)N1c1ccccc1 (stereo partly drawn) [Compound 109, 3-(5-((S)-4-methyl-2-oxo-3-phenylimidazolidin-1-yl)-1-oxoisoindolin-2-yl) piperidine-2,6-dione]
100 to 1000 | 0.1 to 1 | O=C1CCC(N2Cc3cc(N4CCN(C5CCOC5)C4=O)ccc3C2=O)C(=O)N1 (stereo not shown) [Compound 162, 3-(1-oxo-5-(2-oxo-3-(tetrahydrofuran-3-yl)imidazolidin-1-yl)isoindolin-2-yl)piperidine-2,6-dione]
100 to 1000 | 0.1 to 1 | COC[C@H]1CN(c2ccc3c(c2)CN(C2CCC(=O)NC2=O)C3=O)C(=O)N1c1ccc(C)cc1 (stereo partly drawn) [Compound 157, 3-(5-((R)-4-(methoxymethyl)-2-oxo-3-(p-tolyl)imidazolidin-1-yl)-1-oxoisoindolin-2-yl)piperidine-2,6-dione]
100 to 1000 | > 1 | O=C1CCC(N2Cc3cc(N4CCN(C5COC5)C4=O)ccc3C2=O)C(=O)N1 (stereo not shown) [Compound 178, 3-(5-(3-(oxetan-3-yl)-2-oxoimidazolidin-1-yl)-1-oxoisoindolin-2-yl)piperidine-2,6-dione]
≤ 100 | 0.1 to 1 | O=C1CCC(N2Cc3cc(N4CCN(c5ccc6[nH]cnc6c5)C4=O)ccc3C2=O)C(=O)N1 (stereo not shown) [Compound 170, 3-(5-(3-(1H-benzo[d]imidazol-5-yl)-2-oxoimidazolidin-1-yl)-1-oxoisoindolin-2-yl) piperidine-2,6-dione]
100 to 1000 | 0.1 to 1 | CC(c1ccccc1)N1CCN(c2ccc3c(c2)CN(C2CCC(=O)NC2=O)C3=O)C1=O (stereo not shown) [Compound 154, 3-(1-oxo-5-(2-oxo-3-(1-phenylethyl)imidazolidin-1-yl)isoindolin-2-yl)piperidine-2,6-dione]
100 to 1000 | > 1 | O=C1CCC(N2Cc3cc(N4CCN(C5CN(c6ccccc6)C5)C4=O)ccc3C2=O)C(=O)N1 (stereo not shown) [Compound 174, 3-(1-oxo-5-(2-oxo-3-(1-phenylazetidin-3-yl)imidazolidin-1-yl)isoindolin-2-yl)piperidine-2,6-dione]
